Laboratory results taken from patent publication US12600698B2, “Kinase inhibitors” (Vidya Therapeutics, Inc., priority 2021, dated 2026).
pIC50: −log10 of the molar value.

What was measured:
BTK [1] = biological target: T1, BTK (Homo sapiens, UniProt Q06187); assay: BTK IC50 (EZ reader kinase assay); format: biochemical; set-up: purchased Carna; conditions: ATP 1 mM, BTK 2 nM, 90 minutes at room temperature
Experimental: Solutions of compounds (test or control) in DMSO were prepared at the desired concentrations, and serially diluted to 11 concentrations by 3-fold dilution in 384pp-plate using TECAN EVO200. 20 nL of stock were transferred to 384 plate using Echo550. DMSO was used as vehicle control.
Two separate solutions were prepared—an ATP solution containing MgCl2 (10 mM), Brij-35 (0.01%), DTT (2 mM), BSA (0.05%), EGTA (1 mM), HEPE (pH7.5) (50 mM), FLPeptide (6 uM) and ATP (4 mM); and a BTK solution containing MgCl2 (10 mM), Brij-35 (0.01%), DTT (2 mM), BSA (0.05%), EGTA (1 mM), HEPE (pH7.5) (50 mM) and BTK (2.67 nM). (BTK was obtained from Carna; FLPeptide2 was obtained from PerkinElmer and Ibrutinib was obtained from Selleck.) 5 uL of ATP solution were added to each well, followed by addition of 15 uL of BTK solution to initiate the reaction. (Note the final volume of each well was 20 uL containing MgCl2 (10 mM), Brij-35 (0.01%), DTT (2 mM), BSA (0.05%), EGTA (1 mM), HEPE (pH7.5) (50 mM), FLPeptide (1.5 uM), ATP (1 mM) and BTK (2 nM). The plates were incubated at room temperature for 90 minutes and then stopping buffer added (75 uL, containing 0.5 M EDTA) to terminate the reaction. Samples from each well were analyzed using EZ reader.
The % remaining activity was calculated using read conversion ratio (CR) according to the equation: […]
XLFit (equation 201) was used to calculate IC50's by floating both bottom and top.
BTK IC50 values are provided in Table 5, for the compounds described in Examples 1-13, wherein: • “A” denotes an IC50<1 nM; • “B” denotes an IC50 1-10 nM; and • “C” denotes an IC50>10 nM.

BTK [2] = biological target: T1, BTK; assay: Assay to determine BTK inactivation rate (active site probe ELISA, human whole blood); format: cell-based; set-up: tissue StemExpress; host or cells: human whole blood; conditions: 37° C., 5-60 minutes, read-out: BTK hWB (Kinact/Ki)
Experimental: This example employed a BTK active site probe-based assay using a biotinylated covalent inhibitor in human and mouse blood or mouse brain lysate.
Human whole blood was obtained from StemExpress (Stockton, CA) and kept at ambient temperature until the time of the experiment, which was approximately 24 hours after it had been collected. • 1. A 1× lysis buffer was prepared by using 10× lysis buffer (Cell Signaling Technology, #9083S, Danvers, MA), molecular biology grade water, 100× Halt Protease and Phosphatase Inhibitor Cocktail, (ThermoFisher, #78440, Waltham, MA), and BTK active site probe (final: 0.4 μM). This was prepared fresh each experimental day. • 2. Lysis buffer was added in the volume of 30 μL to all wells in a V-bottom plate (Greiner Bio-One, #651261, Monroe, NC) in preparation for timepoint collections. • 3. Compounds were reconstituted to stocks of 10 mM in 100% DMSO and were diluted in 2-fold serial dilutions to generate an 8-point curve in DMSO, with the last point being DMSO only. • 4. A working 10× dilution series was created using 1 μL of the prepared DMSO titration into […] 1×PBS in order to keep the DMSO constant (0.03% DMSO final). • 5. The whole blood was added in the volume of 225 μL per well in a new 96 w v-bottom plate. • 6. For compound treatment, 25 μL of the 10× dilution series in PBS was added to the 225 μL whole blood, followed by briefly pipetting up and down, twice. • 7. The plates were then covered with plastic lids and incubated at 37° C. for 5, 10, 15, 30, 60 minutes. • 8. At each timepoint, 30 μL of compound- or DMSO (vehicle)-treated blood is pulled from each column and added to preloaded collection plates that contained 30 μL of lysis buffer supplemented with BTK active site probe. Samples were then mixed briefly by pipetting up and down, twice. • 9. The plates with collected and lysed samples were shaken and covered with sealing film on a rotator for 60 minutes at room temperature. These samples were used fresh for detection via ELISA, and remaining sample was frozen at −80° C. if a repeat was necessary. Determining Amount of Unoccupied BTK Using ELISA • 1. All streptavidin pre-coated plates (R&D Systems, #CP004, Minneapolis, MN) were brought to room temperature while samples are lysing. • 2. Assay Buffer 1, 1×PBS+0.05% Tween 20+1% BSA was prepared, filtered, and stored at 4° C. when not in use. • 3. Using this Assay Buffer 1, assay buffer+1× protease/phosphatase inhibitor cocktail (PICS) was prepared in the amount needed for all samples. • 4. Assay Buffer+PICS in the volume of 90 μL/well was added to the ELISA plate for blood samples. • 5. Assay Buffer+PICs in the volume of 50 μL/well was added to the ELISA plate for brain samples. • 6. Lysed blood sample (10 μL) was added to the ELISA plate. • 7. Lysed brain sample (50 μL) was added to the ELISA plate. • 8. Samples were loaded into the ELISA plate for a total of 100 μL/well, in duplicate, and remained in the plate, sealed, overnight at 4° C. • 9. The following day, the plate was washed three times with 1× Wash Buffer (1×PBS+0.05% Tween 20) at 250 μL/well using a plate washer. • 10. The plate was inverted to expel all fluid each time and blotted on clean paper towels to remove remaining liquid. • 11. Assay Buffer 2 was prepared (1×PBS+0.05% Tween 20+0.5% BSA) and kept at 4° C. when not in use. • 12. The primary antibody α-BTK (clone D3H5, Cell Signaling Technology #8547S Danvers, MA) was diluted 1:500 in Assay Buffer 2. • 13. Diluted a-BTK antibody was added at 100 μL/well. • 14. The plate was covered with adhesive film and incubated for 90 minutes at room temperature. • 15. The plate was washed three times with 1× Wash Buffer at 250 μL/well using a plate washer. • 16. The plate was inverted to expel all fluid each time and blotted on clean paper towels to remove remaining liquid. • 17. The detection antibody (Jackson Immuno Research, #711-005-152) was diluted 1:2,500 with Assay Buffer 2. • 18. The diluted antibody was added at 100 μL/well. • 19. […]

T1 sequence (Q06187 whole entry): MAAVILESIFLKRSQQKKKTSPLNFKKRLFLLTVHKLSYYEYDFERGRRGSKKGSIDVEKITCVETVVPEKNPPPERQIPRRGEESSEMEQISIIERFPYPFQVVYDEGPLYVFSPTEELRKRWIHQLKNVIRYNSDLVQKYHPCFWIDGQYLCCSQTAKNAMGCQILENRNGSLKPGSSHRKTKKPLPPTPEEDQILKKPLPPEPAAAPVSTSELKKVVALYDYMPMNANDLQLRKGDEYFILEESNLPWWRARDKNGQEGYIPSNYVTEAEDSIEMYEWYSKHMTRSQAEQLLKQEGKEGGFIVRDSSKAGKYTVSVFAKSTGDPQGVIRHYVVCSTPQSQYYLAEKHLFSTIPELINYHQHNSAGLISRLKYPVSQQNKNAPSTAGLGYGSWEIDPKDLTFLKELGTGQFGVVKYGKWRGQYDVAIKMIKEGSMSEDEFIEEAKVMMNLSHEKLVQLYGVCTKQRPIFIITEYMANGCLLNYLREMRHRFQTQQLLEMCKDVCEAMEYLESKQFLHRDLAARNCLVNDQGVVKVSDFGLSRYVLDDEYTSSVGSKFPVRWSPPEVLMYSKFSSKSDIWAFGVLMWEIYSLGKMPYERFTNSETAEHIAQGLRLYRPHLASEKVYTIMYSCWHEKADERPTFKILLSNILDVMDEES

Row | SMILES | pIC50 (BTK [1]) | kinact/KI (BTK [2]) [M⁻¹ s⁻¹]
1 | CC#CC(=O)N[C@@H]1CCC=C(c2c(F)cc(C(N)=O)c3[nH]c(C)c(Cl)c23)C1 [1A(R), (R)-4-(5-(but-2-ynamido)cyclohex-1-en-1-yl)-3-chloro-5-fluoro-2-methyl-1H-indole-7-carboxamide] | 8.00 to 9.00 | < 8330
2 | CC#CC(=O)N[C@H]1CCC[C@@H](c2c(F)c(F)c(C(N)=O)c3[nH]c(C)c(Cl)c23)C1 [Compound 11-(1R,3S), 4-((1R,3S)-3-(but-2-ynamido)cyclohexyl)-3-chloro-5,6-difluoro-2-methyl-1H-indole-7-carboxamide] | 8.00 to 9.00 | < 8330
3 | CC#CC(=O)N[C@H]1CCC=C(c2c(F)cc(C(N)=O)c3[nH]c(C)c(C)c23)C1 [3A(S), (S)-4-(5-(but-2-ynamido)cyclohex-1-en-1-yl)-5-fluoro-2,3-dimethyl-1H-indole-7-carboxamide] | > 9.00 | > 16700
4 | CC#CC(=O)N[C@@H]1CCC[C@@H](c2c(F)c(F)c(C(N)=O)c3[nH]c(C)c(C#N)c23)C1 [Compound 7-(1R,3R), 4-((1R,3R)-3-(but-2-ynamido)cyclohexyl)-3-cyano-5,6-difluoro-2-methyl-1H-indole-7-carboxamide] | 8.00 to 9.00 | 8330 to 16700
5 | CC#CC(=O)N[C@H]1CCC=C(c2c(F)c(F)c(C(N)=O)c3[nH]c(C)c(Cl)c23)C1 [2A(S), (S)-4-(5-(but-2-ynamido)cyclohex-1-en-1-yl)-3-chloro-5,6-difluoro-2-methyl-1H-indole-7-carboxamide] | > 9.00 | > 16700
6 | CC#CC(=O)N[C@@H]1C=C(c2c(F)cc(C(N)=O)c3[nH]c(C)c(C)c23)CCC1 [3B(S), (S)-4-(3-(but-2-ynamido)cyclohex-1-en-1-yl)-5-fluoro-2,3-dimethyl-1H-indole-7-carboxamide] | 8.00 to 9.00 | > 16700
7 | CC#CC(=O)N[C@H]1CCC[C@@H](c2c(F)c(F)c(C(N)=O)c3[nH]c(C)c(C#N)c23)C1 [Compound 7-(1R,3S), 4-((1R,3S)-3-(but-2-ynamido)cyclohexyl)-3-cyano-5,6-difluoro-2-methyl-1H-indole-7-carboxamide] | 8.00 to 9.00 | < 8330
8 | CC#CC(=O)N[C@@H]1C=C(c2c(F)cc(C(N)=O)c3[nH]c(C)c(Cl)c23)CCC1 [5B(S), (S)-4-(3-(but-2-ynamido)cyclohex-1-en-1-yl)-3-chloro-5-fluoro-2-methyl-1H-indole-7-carboxamide] | 8.00 to 9.00 | < 8330
9 | CC#CC(=O)N(C)[C@H]1CCC=C(c2c(F)cc(C(N)=O)c3[nH]c(C)c(C)c23)C1 [4A(S), (S)-5-fluoro-2,3-dimethyl-4-(5-(N-methylbut-2-ynamido)cyclohex-1-en-1-yl)-1H-indole-7-carboxamide] | 8.00 to 9.00 | 
10 | CC#CC(=O)NC1CCC=C(c2c(F)cc(C(N)=O)c3[nH]c(C)c(Cl)c23)C1 (racemic) [1A(rac), 4-(5-(but-2-ynamido)cyclohex-1-en-1-yl)-3-chloro-5-fluoro-2-methyl-1H-indole-7-carboxamide] | 8.00 to 9.00 | 
11 | CC#CC(=O)N[C@@H]1CCC[C@H](c2c(F)c(F)c(C(N)=O)c3[nH]c(C)c(F)c23)C1 [Compound 8-(1S,3R), 4-((1S,3R)-3-(but-2-ynamido)cyclohexyl)-3,5,6-trifluoro-2-methyl-1H-indole-7-carboxamide] | < 8.00 | 

Continued, values first:

Row | pIC50 (BTK [1]) | kinact/KI (BTK [2]) [M⁻¹ s⁻¹] | SMILES
12 | 8.00 to 9.00 | < 8330 | CC#CC(=O)N[C@@H]1CCC[C@H](c2c(F)cc(C(N)=O)c3[nH]c(C)c(Cl)c23)C1 (relative stereo) [Compound 6-(cis), 4-((cis)-3-(but-2-ynamido)cyclohexyl)-3-chloro-5-fluoro-2-methyl-1H-indole-7-carboxamide]
13 | 8.00 to 9.00 | < 8330 | CC#CC(=O)N[C@@H]1CCC[C@@H](c2c(F)c(F)c(C(N)=O)c3[nH]c(C)c(Cl)c23)C1 [11-(1R,3R), 4-[(1R,3R)-3-(but-2-ynoylamino)cyclohexyl]-3-chloro-5,6-difluoro-2-methyl-1H-indole-7-carboxamide]
14 | 8.00 to 9.00 | < 8330 | CC#CC(=O)N[C@H]1CCC[C@H](c2c(F)cc(C(N)=O)c3[nH]c(C)c(C)c23)C1 [10-(1S,3S), 4-((1S,3S)-3-(but-2-ynamido)cyclohexyl)-5-fluoro-2,3-dimethyl-1H-indole-7-carboxamide]
15 | 8.00 to 9.00 | < 8330 | CC#CC(=O)N[C@H]1CC[C@@H](c2c(F)cc(C(N)=O)c3[nH]c(C)c(C)c23)C1 [12-(1R,3S), 4-((1R,3S)-3-(but-2-ynamido)cyclopentyl)-5-fluoro-2,3-dimethyl-1H-indole-7-carboxamide]
16 | 8.00 to 9.00 | < 8330 | CC#CC(=O)N[C@H]1CCC[C@@H](c2c(F)cc(C(N)=O)c3[nH]c(C)c(Cl)c23)C1 [6-(1R,3S), 4-((1R,3S)-3-(but-2-ynamido)cyclohexyl)-3-chloro-5-fluoro-2-methyl-1H-indole-7-carboxamide]
17 | 8.00 to 9.00 | < 8330 | CC#CC(=O)N[C@@H]1CC[C@@H](c2c(F)cc(C(N)=O)c3[nH]c(C)c(C)c23)C1 [Compound 13-(1R,3R), 4-((1R,3R)-3-(but-2-ynamido)cyclopentyl)-5-fluoro-2,3-dimethyl-1H-indole-7-carboxamide]
18 | < 8.00 |  | CC#CC(=O)N[C@@H]1CCC[C@@H](c2c(F)cc(C(N)=O)c3[nH]c(C)c(Cl)c23)C1 [6-(1R,3R), 4-((1R,3R)-3-(but-2-ynamido)cyclohexyl)-3-chloro-5-fluoro-2-methyl-1H-indole-7-carboxamide]
19 | < 8.00 |  | CC#CC(=O)N[C@H]1CC[C@H](c2c(F)cc(C(N)=O)c3[nH]c(C)c(C)c23)C1 [12-(1S,3S), 4-((1S,3S)-3-(but-2-ynamido)cyclopentyl)-5-fluoro-2,3-dimethyl-1H-indole-7-carboxamide]
